Experimental data: patent US9714228B2, “Dihydrofuran derivatives as insecticidal compounds” (Syngenta Participations AG, priority 2010, dated 2017)

Assays:
Format in all cases: in vivo
Thrips tabaci = assay: Thrips tabaci, sprayed sunflower leaf discs; conditions: foliar, 168 h, sunflower leaf discs sprayed at 200 ppm, mixed ages, mortality after 7 days
Procedure: Thrips tabaci (Onion Thrips): Sunflower leaf discs were placed on agar in a 24-well microtiter plate and sprayed with test solutions at an application rate of 200 ppm. After drying, the leaf discs were infested with an […] population of mixed ages. After an incubation period of 7 days, samples were checked for mortality.

Spodoptera littoralis [1] = assay: Spodoptera littoralis (systemic), salad grown on treated agar, eggs; conditions: 120 h, application rate 12.5 ppm, checked 5 days after infestation (mortality, repellent effect, feeding behavior, growth regulation)
Source text: Spodoptera littoralis (Systemic) (Egyptian Cotton Leaf Worm) Test compounds were applied by pipette into 24 well plates and mixed with agar. Salad seeds were placed on the agar and the multi well plate is closed by another plate which contains also agar. After 7 days the roots have absorbed the compound and the salad has grown into the lid plate. The salad leafs were now cut off into the lid plate. Spodoptera eggs were pipette through a plastic stencil on a humid gel blotting paper and the plate closed with it. The samples are checked for mortality, repellent effect, feeding behavior, and growth regulation 5 days after infestation. Application rate: 12.5 ppm

Heliothis virescens = assay: Heliothis virescens, eggs on treated artificial diet; conditions: 96 h, 200 ppm (concentration in well 18 ppm), 4 days incubation
Procedure: Heliothis virescens (Tobacco Budworm): Eggs (0-24 h old) were placed in 24-well microtiter plate on artificial diet and treated with test solutions at an application rate of 200 ppm (concentration in well 18 ppm) by pipetting. After an incubation period of 4 days, samples were checked for egg mortality, larval mortality, and growth regulation.

Tetranychus urticae = assay: Tetranychus urticae, sprayed bean leaf discs; conditions: foliar, 192 h, bean leaf discs sprayed at 200 ppm, mixed ages, checked 8 days later
Source text: Tetranychus urticae (Two-Spotted Spider Mite): Bean leaf discs on agar in 24-well microtiter plates were sprayed with test solutions at an application rate of 200 ppm. After drying, the leaf discs are infested with mite populations of mixed ages. 8 days later, discs are checked for egg mortality, larval mortality, and adult mortality.

Spodoptera littoralis [2] = assay: Spodoptera littoralis, sprayed cotton leaf discs, L1 larvae; conditions: foliar, 72 h, cotton leaf discs sprayed at 200 ppm, 3 days after treatment
Source text: Spodoptera littoralis (Egyptian Cotton Leafworm): Cotton leaf discs were placed on agar in a 24-well microtiter plate and sprayed with test solutions at an application rate of 200 ppm. After drying, the leaf discs were infested with 5 L1 larvae. The samples were checked for mortality, feeding behavior, and growth regulation 3 days after treatment (DAT).

Myzus persicae = Myzus persicae (sachet), mixed population, sucrose solution; conditions: 120 h, application rate 12.5 ppm, mortality 5 days after infestation
Source text: Myzus persicae (Sachet) (Green Peach Aphid) Mixed Population Test compounds were applied by pipette into 24 well plates and mixed with Sucrose solution. The plates were closed with a stretched Parafilm. A plastic stencil with 24 holes is placed onto the plate and infested pea seedlings were placed directly on the Parafilm. The infested plate is closed with a gel blotting paper and another plastic stencil and then turned upside down. 5 days after infestation the samples were checked on mortality. Application rate: 12.5 ppm.

Diabrotica balteata = assay: Diabrotica balteata, L2 larvae on treated artificial diet; conditions: 120 h, 200 ppm (concentration in well 18 ppm), 5 days incubation
Procedure: Diabrotica balteata (Corn Root Worm): A 24-well microtiter plate (MTP) with artificial diet was treated with test solutions at an application rate of 200 ppm (concentration in well 18 ppm) by pipetting. After drying, the MTPs were infested with L2 larvae (6-10 per well). After an incubation period of 5 days, samples were checked for larval mortality and growth regulation.

Plutella xylostella = assay: Plutella xylostella, L2 larvae on treated artificial diet; conditions: 144 h, 200 ppm (concentration in well 18 ppm), 6 days incubation
Procedure: Plutella xylostella (Diamond Back Moth): 24-well microtiter plate (MTP) with artificial diet was treated with test solutions at an application rate of 200 ppm (concentration in well 18 ppm) by pipetting. After drying, the MTPs were infested with L2 larvae (7-12 per well). After an incubation period of 6 days, samples were checked for larval mortality and growth regulation.

Cc1cc(C2=COC(c3cc(Cl)cc(Cl)c3)(C(F)(F)F)C2)ccc1C(=O)NC1CSC1 (stereo not drawn) [Compound D21]
≥ 80%: pest or weed control at 200 ppm (Thrips tabaci) | pest or weed control at 12.5 ppm (Spodoptera littoralis [1]) | pest or weed control at 200 ppm (Heliothis virescens) | pest or weed control at 200 ppm (Tetranychus urticae) | pest or weed control at 200 ppm (Spodoptera littoralis [2]) | pest or weed control at 12.5 ppm (Myzus persicae) | pest or weed control at 200 ppm (Diabrotica balteata) | pest or weed control at 200 ppm (Plutella xylostella)

Cc1cc(C2=COC(c3cc(Cl)cc(Cl)c3)(C(F)(F)F)C2)ccc1C(=O)NC1CS(=O)(=O)C1 (stereo not drawn) [Compound D24, 4-[5-(3,5-Dichloro-phenyl)-5-trifluoromethyl-4,5-dihydro-furan-3-yl]-N-(1,1-dioxo-1lambda*6*-thietan-3-yl)-2-methyl-benzamide]
≥ 80%: pest or weed control at 200 ppm (Thrips tabaci) | pest or weed control at 12.5 ppm (Spodoptera littoralis [1]) | pest or weed control at 200 ppm (Heliothis virescens) | pest or weed control at 200 ppm (Tetranychus urticae) | pest or weed control at 200 ppm (Spodoptera littoralis [2]) | pest or weed control at 12.5 ppm (Myzus persicae) | pest or weed control at 200 ppm (Diabrotica balteata) | pest or weed control at 200 ppm (Plutella xylostella)

Cc1cc(C2=COC(c3cc(Cl)cc(Cl)c3)(C(F)(F)F)C2)ccc1C(=O)NCC(F)(F)F (stereo not drawn) [Compound D1]
≥ 80%: pest or weed control at 200 ppm (Thrips tabaci) | pest or weed control at 12.5 ppm (Spodoptera littoralis [1]) | pest or weed control at 200 ppm (Heliothis virescens) | pest or weed control at 200 ppm (Spodoptera littoralis [2]) | pest or weed control at 200 ppm (Diabrotica balteata) | pest or weed control at 200 ppm (Plutella xylostella)

Cc1cc(C2=COC(c3cc(Cl)cc(Cl)c3)(C(F)(F)F)C2)ccc1C(=O)NCc1ccccn1 (stereo not drawn) [Compound D15]
≥ 80%: pest or weed control at 200 ppm (Thrips tabaci) | pest or weed control at 12.5 ppm (Spodoptera littoralis [1]) | pest or weed control at 200 ppm (Heliothis virescens) | pest or weed control at 200 ppm (Tetranychus urticae) | pest or weed control at 200 ppm (Spodoptera littoralis [2]) | pest or weed control at 12.5 ppm (Myzus persicae) | pest or weed control at 200 ppm (Diabrotica balteata) | pest or weed control at 200 ppm (Plutella xylostella)

Cc1cc(C2=COC(c3cc(Cl)cc(Cl)c3)(C(F)(F)F)C2)ccc1C(=O)NC1C[S+]([O-])C1 (stereo not drawn) [Compound D20]
≥ 80%: pest or weed control at 200 ppm (Thrips tabaci) | pest or weed control at 12.5 ppm (Spodoptera littoralis [1]) | pest or weed control at 200 ppm (Heliothis virescens) | pest or weed control at 200 ppm (Tetranychus urticae) | pest or weed control at 200 ppm (Spodoptera littoralis [2]) | pest or weed control at 12.5 ppm (Myzus persicae) | pest or weed control at 200 ppm (Diabrotica balteata) | pest or weed control at 200 ppm (Plutella xylostella)

Cc1cc(C2=COC(c3cc(Cl)cc(Cl)c3)(C(F)(F)F)C2)ccc1C(=O)NCC1CCCO1 (stereo not drawn) [Compound D8]
≥ 80%: pest or weed control at 200 ppm (Thrips tabaci) | pest or weed control at 12.5 ppm (Spodoptera littoralis [1]) | pest or weed control at 200 ppm (Heliothis virescens) | pest or weed control at 200 ppm (Tetranychus urticae) | pest or weed control at 200 ppm (Spodoptera littoralis [2]) | pest or weed control at 12.5 ppm (Myzus persicae) | pest or weed control at 200 ppm (Diabrotica balteata) | pest or weed control at 200 ppm (Plutella xylostella)

Cc1cc(C2=COC(c3cc(Cl)cc(Cl)c3)(C(F)(F)F)C2)ccc1C(=O)NCc1ccccc1F (stereo not drawn) [Compound D10]
≥ 80%: pest or weed control at 200 ppm (Thrips tabaci) | pest or weed control at 200 ppm (Heliothis virescens) | pest or weed control at 200 ppm (Tetranychus urticae) | pest or weed control at 200 ppm (Spodoptera littoralis [2]) | pest or weed control at 12.5 ppm (Myzus persicae) | pest or weed control at 200 ppm (Diabrotica balteata) | pest or weed control at 200 ppm (Plutella xylostella)

COc1ccc(CNC(=O)c2ccc(C3=COC(c4cc(Cl)cc(Cl)c4)(C(F)(F)F)C3)cc2C)cc1 (stereo not drawn) [Compound D12]
≥ 80%: pest or weed control at 200 ppm (Thrips tabaci) | pest or weed control at 200 ppm (Heliothis virescens) | pest or weed control at 200 ppm (Tetranychus urticae) | pest or weed control at 200 ppm (Spodoptera littoralis [2]) | pest or weed control at 12.5 ppm (Myzus persicae) | pest or weed control at 200 ppm (Diabrotica balteata) | pest or weed control at 200 ppm (Plutella xylostella)
